Reference: patent publication US20120220581A1, “IMIDAZO[1,2-b]PYRIDAZINE DERIVATIVES AND THEIR USE AS PDE10 INHIBITORS” (Janssen-Cilag, S.A., priority 2009, published 2012)
Like-named read-outs stand apart in the source and are kept apart here.

Legend:
[1] = tested on: female hooded-Lister rats; assay: Object recognition test (NOR) after sub-chronic PCP; type: in vivo, rat; conditions: Day 1, 3 min retention trial, mean
[2] = tested on: female hooded-Lister rats; assay: as above; type: in vivo, rat; conditions: for LMA (no. of lines crossed): mean
Protocol: 60 female hooded-Lister rats (Charles River, UK) were used as subjects for these studies and weighed 248 g±20 g. Rats were allowed at least a 7-day acclimatization period to the animal unit prior to commencement of experimentation. Rats were housed in groups of 5 under standard laboratory conditions under a 12 h light:dark cycle, lights on at 0700 h. All testing was carried out in the light phase. Food and water were freely provided. All experiments were conducted in accordance with the Animals Scientific Procedures Act, U.K. 1986 and were approved by the University of Bradford ethical review panel.
40 mg of test compound was dissolved in 5 ml of 40% hydroxypropyl β-cyclodextrin (HPBC) solution. The solution was sonicated until completely dissolved. 2 ml of sterile water was added and the pH measured and adjusted with NaOH solution (0.1N) to obtain pH ˜4. Finally, sterile water was added to a final volume of 10 ml. This stock solution was then diluted in 20% HPBC to obtain the final concentrations. 100 mg of PQ10 was dissolved in a 40% HPBC solution and 8 mg of tartaric acid. The solution was sonicated until completely dissolved. 5 ml of sterile water was added and the pH measured and adjusted with NaOH solution (0.1N) to obtain pH ˜4. Finally sterile water was added to a final volume of 10 ml.
Test compound was administered at doses of 0.3 and 1.0 mg/kg via the oral route 30 min prior to testing.
PQ10 was administered at a dose of 1.0 mg/kg via the oral route 30 min prior to testing.
Certain pre-clinical tests allow the observation of relatively subtle cognitive deficits in the rat that resemble cognitive symptoms in subjects with schizophrenia. The cognitive deficits observed are seen in behaviours such as episodic memory, which can be measured by recognition tasks such as the novel object recognition (NOR) paradigm. A recognition memory task allows the comparison between presented stimuli and previously stored information. Ennaceur, A Delacour, J (1988) A new one-trial test for neurobiological studies of memory in rats Behav Brain Res 31: 47-59 described the NOR test in rats which was based on the differential exploration of familiar and new objects. The NOR test is a non-rewarded, ethologically relevant paradigm based on the spontaneous exploratory behaviour of rats that measures episodic memory. Each session consists of two trials. In the first trial, the rats are exposed to two identical objects in an open field. During the second trial, rats are exposed to two dissimilar objects, one familiar object from the first trial and one new object. Object recognition in rats can be measured as the difference in time spent exploring the familiar and the new object. […] The duration of each trial is also important as a preference for the novel object only lasts during the first 1 or 2 minutes, after which time preference diminishes as both objects become familiar and are explored equally.
Rats were randomly assigned to the 8 treatment groups
Rats were allowed to habituate to the empty test box and the behavioural test room environment for 1 h on day 1. Prior to behavioural testing on day 2 rats were given a further 3 min habituation.
Following the 3 min habituation period, the rats were given two 3 min trials (T1 and T2) which were separated by a 1 min inter-trial interval in the home cage during which the objects were changed.
In this trial, the animals were allowed to explore two identical objects (A1 and A2) for 3 min.
In this trial, the animals explored a familiar object (A) from T1 and a novel object (B) for 3 min. The familiar object presented during T2 was a duplicate of the object presented in T1 in order to avoid any olfactory trails.
The object exploration was defined by animals licking, sniffing or touching the object with the forepaws whilst sniffing, but not leaning against, turning around, standing or sitting on the object. […]

[3] = target: T1, Rat recombinant PDE10A (rPDE10A2) (Rattus norvegicus, UniProt Q9QYJ6); assay: In vitro assay PDE10A (SPA, 3H-cAMP); type: biochemical
T1 construct: inferred from the Ni metal chelate purification; made in house; host or cells: Sf9 insect cells (baculovirus)
T1 sequence (Q9QYJ6 1-794): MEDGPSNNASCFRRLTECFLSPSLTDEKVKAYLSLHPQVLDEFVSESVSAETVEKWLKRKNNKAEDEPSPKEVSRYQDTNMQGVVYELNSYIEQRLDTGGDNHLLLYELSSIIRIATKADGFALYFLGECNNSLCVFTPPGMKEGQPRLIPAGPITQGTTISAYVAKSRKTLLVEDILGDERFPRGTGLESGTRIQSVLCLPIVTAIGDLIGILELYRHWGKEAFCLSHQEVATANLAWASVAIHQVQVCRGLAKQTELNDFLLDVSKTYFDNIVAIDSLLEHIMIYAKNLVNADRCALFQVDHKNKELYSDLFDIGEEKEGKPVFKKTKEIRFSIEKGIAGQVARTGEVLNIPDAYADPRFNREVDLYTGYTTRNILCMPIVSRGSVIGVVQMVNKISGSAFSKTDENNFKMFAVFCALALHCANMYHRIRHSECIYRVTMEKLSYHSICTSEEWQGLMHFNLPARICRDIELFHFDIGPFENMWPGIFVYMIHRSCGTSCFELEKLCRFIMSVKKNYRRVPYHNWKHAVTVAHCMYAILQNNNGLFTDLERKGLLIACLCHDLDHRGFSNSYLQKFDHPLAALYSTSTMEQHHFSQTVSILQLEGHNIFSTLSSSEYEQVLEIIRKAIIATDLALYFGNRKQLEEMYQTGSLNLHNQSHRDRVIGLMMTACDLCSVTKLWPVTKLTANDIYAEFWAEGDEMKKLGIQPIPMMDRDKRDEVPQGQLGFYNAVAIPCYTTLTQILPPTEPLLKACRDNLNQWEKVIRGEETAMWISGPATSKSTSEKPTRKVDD
Outline: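 Rat PDE10A2 expressed in Sf9 cells and Ni-purified; incubated with 60 nM cAMP plus 0.008 μCi 3H-cAMP in 50 mM Tris pH 7.8, 8.3 mM MgCl2, 1.7 mM EGTA for 60 min at room temperature. Product quantified by scintillation proximity counting; final DMSO 1%.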

Row | Structure (SMILES) | T2(A) exploration time of familiar object, retention trial ([1]; PCP + 0.3 mg/kg p.o.) | T2(B) exploration time of novel object, retention trial ([1]; PCP + 0.3 mg/kg p.o.) | T2(A) exploration time of familiar object, retention trial ([1]; PCP + 1 mg/kg p.o.) | T2(B) exploration time of novel object, retention trial ([1]; PCP + 1 mg/kg p.o.) | LMA (no. of lines crossed) ([2]; PCP + 0.3 mg/kg p.o.) | LMA (no. of lines crossed) ([2]; PCP + 1 mg/kg p.o.) | effects of acute treatment in the NOR task ([2]; acute treatment, oral route 30 min prior to testing, compound 1 0.3-1.0 mg/kg, PQ10 1.0 mg/kg, sub-chronic PCP female rats) | IC50 ([3]; Table 4 in vitro selectivity, read-out: PDE 10A2 (expressed as pIC50) (converted)) | IC50 ([3]; pIC50 corresponds to the −log IC50 expressed in mol/L, read-out: PDE10A2 pIC50 (converted))
1 | COCCc1ccc(-c2c(C)nc3c(N4CCOCC4)ccnn23)cn1 [compound 1, 3-[6-(2-methoxyethyl)-3-pyridinyl]-2-methyl-8-(4-morpholinyl)-imidazo[1,2-b]pyridazine] | 11.8 s | 17.6 s | 10.7 s | 22.3 s | 56.5 no. of lines crossed | 56.4 no. of lines crossed | selective for the retention phase | – | –
2 | COCCOc1ccc(-c2c(C)nc3c(-c4ccncc4)ccnn23)cn1 [compound 21, 3-[6-(2-methoxyethoxy)-3-pyridinyl]-2-methyl-8-(4-pyridinyl)-imidazo[1,2-b]pyridazine] | – | – | – | – | – | – | – | 102 nM | 102 nM
